“Also recorded” adds a separate entry of the source. Where two headings read alike, the source gives them in different places.
Experiments:
Porcine kidney DPP-IV [1] = molecular target: T1, Porcine kidney DPP-IV (Sus scrofa, UniProt P22411); assay: DPP-IV Glo Protease Assay (luminescence), DPP-IV inhibition; format: biochemical; details: for DPP-IV inhibitory activity (in words): tested at 0.5, 5, 20 and 40 μg/mL, data not shown
T1 construct: purchased Sigma-Aldrich; host or cells: porcine kidney (tissue-derived, as named)
T1 sequence (P22411 whole entry): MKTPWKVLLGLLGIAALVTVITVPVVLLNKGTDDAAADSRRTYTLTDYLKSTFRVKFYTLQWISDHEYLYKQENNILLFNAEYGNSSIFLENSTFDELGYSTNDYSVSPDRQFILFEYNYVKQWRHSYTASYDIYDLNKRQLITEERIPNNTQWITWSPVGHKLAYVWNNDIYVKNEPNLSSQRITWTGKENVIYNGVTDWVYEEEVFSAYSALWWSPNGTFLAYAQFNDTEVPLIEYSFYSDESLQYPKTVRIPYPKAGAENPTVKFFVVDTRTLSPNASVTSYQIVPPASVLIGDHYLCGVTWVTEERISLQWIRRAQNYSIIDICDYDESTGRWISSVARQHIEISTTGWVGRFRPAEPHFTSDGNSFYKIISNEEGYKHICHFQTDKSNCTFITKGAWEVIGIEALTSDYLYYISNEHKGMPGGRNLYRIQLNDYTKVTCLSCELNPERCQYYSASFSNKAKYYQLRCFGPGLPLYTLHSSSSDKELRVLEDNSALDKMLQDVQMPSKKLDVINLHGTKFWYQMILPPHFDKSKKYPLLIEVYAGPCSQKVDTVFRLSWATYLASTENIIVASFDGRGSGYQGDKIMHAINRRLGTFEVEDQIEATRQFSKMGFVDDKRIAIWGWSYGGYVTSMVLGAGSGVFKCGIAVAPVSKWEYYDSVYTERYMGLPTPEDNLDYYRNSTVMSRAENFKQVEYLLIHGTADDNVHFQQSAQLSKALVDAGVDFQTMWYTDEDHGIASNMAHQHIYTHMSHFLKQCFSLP
Excerpt: All solvents used for phenolic extraction were HPLC-grade and were purchased from Fisher Scientific (Pittsburg, PA). Amberlite XAD-7 was purchased from Sigma-Aldrich (St. Louis, MO). Sephadex LH-20 was purchased from GE Life Sciences (Buckinghamshire, UK). […] DPP-IV Glo^TM Protease Assay kits were purchased from Promega (Madison, WI). […] All other reagents were of analytical grade.
Measurement of the activity and potential inhibition of DPP-IV, a type II membrane glycoprotein, was done using the DPP-IV Glo^TM Protease Assay following the manufacture's protocol (Promega, Madison, WI). Briefly, 50 μL of DPP-IV Glo^TM reagent was added to a white-walled 96-well plate containing 50 μL of blank, positive control, or treatment. The blank contained the vehicle only while positive control contained the vehicle and purified DPP-IV enzyme (at a final concentration of 1 ng/mL). […] The content of the wells was gently mixed using an Ultra Microplate Reader (Biotek Instruments, Winooski, VT) at medium intensity for 4 s. DPP-IV cleavage of the provided Gly-Pro-amino methyl coumarin (AMC) substrate generated a luminescent signal by luciferase reaction, with the amount of DPP-IV enzyme available to bind Gly-Pro-AMC proportional to relative light units (RLU) produced. This signal in RLU was measured after 30 min in the Ultra Microplate Reader and then compared to the blank. […] IC50 values were calculated based on the molecular mass of each compound or C3G as the equivalent for ANC-enriched fractions.
Data were expressed as means of independent duplicates with at least three replicates. […] Statistical analysis was conducted using the proc GLM procedures of SAS version 9.3 (SAS Inst. Inc., Cary, NC, 2009). Group mean comparisons were conducted using Duncan means and were considered to be significant at P < 0.05 based on the least significant differences (LSD) from one-way analysis of variance (ANOVA) with alpha = 0.05. Correlations were made using Pearson's correlation values with P < 0.05.

Porcine kidney DPP-IV [2] = molecular target: T1, Porcine kidney DPP-IV; assay: Inhibitory kinetics study, Lineweaver-Burk plot, Gly-Pro-AMC substrate; format: biochemical; details: for Ki: Gly-Pro-AMC 0–60 μM, read-out: K i (enzyme-inhibition constant, experimental)
Experimental: Each concentration was evaluated in the presence of various concentrations of Gly-Pro-AMC (0–60 μM). DPP-IV activity was measured using the DPP-IV Glo Protease Assay as mentioned above. The inhibition pattern was evaluated utilizing the Lineweaver-Burk plot. Enzyme-inhibition constant K i was determined by plotting the reciprocal of the initial luminescence versus the reciprocal of the initial substrate concentration.
Initial rates of the reaction were measured, and the results are expressed as a Lineweaver-Burk plot. Data are expressed as the mean of four independent experiments.

[3] = pure compounds, concentration based on molecular mass, means ± SEM, read-out: IC50, DPP-IV inhibition

SMILES	IC50 (Porcine kidney DPP-IV [1]; [3]) [µM]	DPP-IV inhibitory activity (in words) (Porcine kidney DPP-IV [1])	also measured
COc1cc(-c2[o+]c3cc(O)cc(O)c3cc2O)cc(OC)c1O [Malvidin, malvidin]			IC50 (Porcine kidney DPP-IV [1]): 0.74 ± 0.16 µM
O=C(O[C@@H]1Cc2c(O)cc(O)cc2O[C@@H]1c1cc(O)c(O)c(O)c1)c1cc(O)c(O)c(O)c1 [EGCG, epigallocatechin gallate]	10.2 ± 0.75		
O=c1cc(-c2ccc(O)cc2)oc2cc(O)cc(O)c12 [Apigenin, apigenin]	0.14 ± 0.02		Inhibition manner (Porcine kidney DPP-IV [2]): noncompetitively; also recorded: noncompetitive; Ki (Porcine kidney DPP-IV [2]): 7.9 ± 1.4 µM
COc1ccc([C@@H]2CC(=O)c3c(O)cc(O[C@@H]4O[C@H](CO)[C@@H](O)[C@H](O)[C@H]4O[C@@H]4O[C@@H](C)[C@H](O)[C@@H](O)[C@H]4O)cc3O2)cc1O [neohesperidin]		did not have DPP-IV inhibitory activity; also recorded: no DPP-IV inhibitory effect	
O.Oc1cc(O)c2c(c1)O[C@H](c1ccc(O)c(O)c1)[C@@H](O)C2 [catechin]		did not have DPP-IV inhibitory activity	
C[C@@H]1O[C@@H](OC[C@H]2O[C@@H](Oc3c(-c4ccc(O)c(O)c4)oc4cc(O)cc(O)c4c3=O)[C@H](O)[C@@H](O)[C@@H]2O)[C@H](O)[C@H](O)[C@H]1O [rutin, rutin hydrate]		did not have DPP-IV inhibitory activity; also recorded: no DPP-IV inhibitory effect	
OC[C@H]1O[C@@H](Oc2cc3c(O)cc(O)cc3[o+]c2-c2ccc(O)c(O)c2)[C@H](O)[C@@H](O)[C@@H]1O [Cyanidin-3-glucoside, cyanidin-3-glucoside]	0.42 ± 0.09		
O=C1C[C@@H](c2ccc(O)cc2)Oc2cc(O)cc(O)c21 [Naringenin, naringenin]	0.24 ± 0.03		
O=c1cc(-c2ccccc2)oc2ccccc12 [Flavone, flavone]	0.17 ± 0.01		Inhibition manner (Porcine kidney DPP-IV [2]): competitive; Ki (Porcine kidney DPP-IV [2]): 18.6 ± 0.3 µM
O=C(O)c1ccc(O)c(O)c1 [protocatechuic acid]		did not have DPP-IV inhibitory activity	
Oc1cc(O)c2cc(O)c(-c3ccc(O)c(O)c3)[o+]c2c1 [Cyanidin, cyanidin]	1.41 ± 0.25		
O=C(/C=C/c1ccc(O)c(O)c1)O[C@@H]1C[C@](O)(C(=O)O)C[C@@H](O)[C@H]1O [chlorogenic acid]		did not have DPP-IV inhibitory activity	
O=c1c(-c2ccc(O)cc2)coc2cc(O[C@@H]3O[C@H](CO)[C@@H](O)[C@H](O)[C@H]3O)cc(O)c12 [genistin]		did not have DPP-IV inhibitory activity	
O=c1c(O)c(-c2ccc(O)c(O)c2)oc2cc(O)cc(O)c12 [Quercetin, quercetin]	2.92 ± 0.68		
C[C@@H]1O[C@@H](O[C@H]2[C@H](Oc3cc(O)c4c(c3)O[C@H](c3ccc(O)cc3)CC4=O)O[C@H](CO)[C@@H](O)[C@@H]2O)[C@H](O)[C@H](O)[C@H]1O [naringin]		did not have DPP-IV inhibitory activity; also recorded: no DPP-IV inhibitory effect	
Oc1ccc(/C=C/c2cc(O)cc(O)c2)cc1 [Resveratrol, resveratrol]	0.0006 ± 0.0004		Inhibition manner (Porcine kidney DPP-IV [2]): competitive; Ki (Porcine kidney DPP-IV [2]): 0.2 ± 0.01 µM
COc1ccc([C@@H]2CC(=O)c3c(O)cc(O[C@@H]4O[C@H](CO[C@@H]5O[C@@H](C)[C@H](O)[C@@H](O)[C@H]5O)[C@@H](O)[C@H](O)[C@H]4O)cc3O2)cc1O [hesperidin]		did not have DPP-IV inhibitory activity; also recorded: no DPP-IV inhibitory effect	
O=C(O)/C=C/c1ccc(O)c(O)c1 [Caffeic acid, caffeic acid]	3.37 ± 0.14		
C[C@@H]1O[C@@H](OC[C@H]2O[C@@H](Oc3cc(O)c4c(c3)O[C@H](c3ccc(O)cc3)CC4=O)[C@H](O)[C@@H](O)[C@@H]2O)[C@H](O)[C@H](O)[C@H]1O [narirutin]		did not have DPP-IV inhibitory activity; also recorded: no DPP-IV inhibitory effect	
O=c1c(-c2ccc(O)cc2)coc2cc(O)cc(O)c12 [Genistein, genistein]	0.48 ± 0.04		
COc1ccc([C@@H]2CC(=O)c3c(O)cc(O)cc3O2)cc1O [Hesperetin, hesperetin]	0.28 ± 0.07		
O=C(O)c1cc(O)c(O)c(O)c1 [Gallic acid, gallic acid]	4.65 ± 0.99		
C[C@@H]1O[C@@H](OC[C@H]2O[C@@H](Oc3cc(O)c4c(c3)O[C@H](c3ccc(O)c(O)c3)CC4=O)[C@H](O)[C@@H](O)[C@@H]2O)[C@H](O)[C@H](O)[C@H]1O [Eriocitrin, eriocitrin]	10.36 ± 0.09		
O=c1c(O)c(-c2ccc(O)cc2)oc2cc(O)cc(O)c12 [Kaempferol, kaempferol]	0.49 ± 0.02		
CC1(C)O[C@H]2CC(=O)OC[C@]23[C@H]2CC[C@@]4(C)[C@H](c5ccoc5)OC(=O)[C@H]5O[C@]54[C@]2(C)C(=O)C[C@@H]13 [limonin]		did not have DPP-IV inhibitory activity	
Oc1cc(O)c2c(c1)O[C@H](c1ccc(O)c(O)c1)[C@H](O)C2 [epicatechin]		did not have DPP-IV inhibitory activity	
O=c1cc(-c2ccc(O)c(O)c2)oc2cc(O)cc(O)c12 [Luteolin, luteolin]	0.12 ± 0.01		Inhibition manner (Porcine kidney DPP-IV [2]): noncompetitively; also recorded: noncompetitive; Ki (Porcine kidney DPP-IV [2]): 4.9 ± 0.2 µM

From article PMC3773436 (Evidence-based Complementary and Alternative Medicine : eCAM, 2013)
